Measured values reported in patent publication US12479847B2 (DANA-FARBER CANCER INSTITUTE, INC., priority 2019, dated 2025).

Key:
Test in all cases: KINOMEscan (ScanMAX) kinase profiling
Assay type in all cases: binding
panel of 468 kinases [1] = target: T1, panel of 468 kinases (Homo sapiens, UniProt P12931); conditions: SRC; 1 μM; read-out: % control
T1 construct: purchased KINOMEscan (ScanMAX) service

panel of 468 kinases [2] = target: T2, panel of 468 kinases (Homo sapiens, UniProt Q8NEV4); conditions: MYO3A; 1 μM; read-out: % control
T2 construct: purchased KINOMEscan (ScanMAX) service
T2 sequence (Q8NEV4 whole entry): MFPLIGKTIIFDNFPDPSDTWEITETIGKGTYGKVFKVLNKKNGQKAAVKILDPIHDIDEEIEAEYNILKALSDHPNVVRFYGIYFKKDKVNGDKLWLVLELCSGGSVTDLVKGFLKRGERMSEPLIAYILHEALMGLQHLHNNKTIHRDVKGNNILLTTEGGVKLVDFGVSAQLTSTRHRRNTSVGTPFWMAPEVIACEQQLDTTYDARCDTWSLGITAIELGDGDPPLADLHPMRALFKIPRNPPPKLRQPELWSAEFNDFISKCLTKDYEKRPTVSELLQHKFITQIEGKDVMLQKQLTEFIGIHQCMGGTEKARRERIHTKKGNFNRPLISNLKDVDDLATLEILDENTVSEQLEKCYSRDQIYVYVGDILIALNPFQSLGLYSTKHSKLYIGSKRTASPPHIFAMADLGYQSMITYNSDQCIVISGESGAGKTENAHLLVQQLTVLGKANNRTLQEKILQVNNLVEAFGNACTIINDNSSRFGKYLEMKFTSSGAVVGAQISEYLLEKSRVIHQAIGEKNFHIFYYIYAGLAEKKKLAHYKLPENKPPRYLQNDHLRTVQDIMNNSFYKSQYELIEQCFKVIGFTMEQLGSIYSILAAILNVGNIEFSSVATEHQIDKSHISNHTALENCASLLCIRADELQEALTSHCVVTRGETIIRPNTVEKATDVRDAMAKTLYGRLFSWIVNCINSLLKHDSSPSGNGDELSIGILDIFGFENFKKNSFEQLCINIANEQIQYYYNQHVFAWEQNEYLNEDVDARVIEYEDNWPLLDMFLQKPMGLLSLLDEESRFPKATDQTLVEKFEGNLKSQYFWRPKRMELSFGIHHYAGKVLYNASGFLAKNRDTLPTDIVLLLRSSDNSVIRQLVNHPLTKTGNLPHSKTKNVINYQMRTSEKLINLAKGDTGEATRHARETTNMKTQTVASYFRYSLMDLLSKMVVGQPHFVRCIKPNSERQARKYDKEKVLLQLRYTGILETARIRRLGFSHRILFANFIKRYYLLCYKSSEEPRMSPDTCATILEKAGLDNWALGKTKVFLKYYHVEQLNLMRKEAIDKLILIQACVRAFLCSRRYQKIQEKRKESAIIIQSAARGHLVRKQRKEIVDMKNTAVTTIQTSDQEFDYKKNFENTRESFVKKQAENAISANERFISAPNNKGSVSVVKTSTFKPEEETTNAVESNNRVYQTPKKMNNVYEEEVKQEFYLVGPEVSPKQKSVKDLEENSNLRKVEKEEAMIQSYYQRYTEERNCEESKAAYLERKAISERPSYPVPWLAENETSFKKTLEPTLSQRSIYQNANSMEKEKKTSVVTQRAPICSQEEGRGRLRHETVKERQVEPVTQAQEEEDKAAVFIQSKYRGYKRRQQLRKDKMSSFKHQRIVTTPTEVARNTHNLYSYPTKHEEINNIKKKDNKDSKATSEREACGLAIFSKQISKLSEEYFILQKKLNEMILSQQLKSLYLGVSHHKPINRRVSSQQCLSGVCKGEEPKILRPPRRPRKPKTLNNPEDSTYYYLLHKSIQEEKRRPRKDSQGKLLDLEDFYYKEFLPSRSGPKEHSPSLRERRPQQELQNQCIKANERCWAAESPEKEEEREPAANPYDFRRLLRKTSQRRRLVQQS

panel of 468 kinases [3] = target: T3, panel of 468 kinases (Homo sapiens, UniProt P33981); conditions: TTK; 1 μM; read-out: % control
T3 construct: purchased KINOMEscan (ScanMAX) service
T3 sequence (P33981 1-857): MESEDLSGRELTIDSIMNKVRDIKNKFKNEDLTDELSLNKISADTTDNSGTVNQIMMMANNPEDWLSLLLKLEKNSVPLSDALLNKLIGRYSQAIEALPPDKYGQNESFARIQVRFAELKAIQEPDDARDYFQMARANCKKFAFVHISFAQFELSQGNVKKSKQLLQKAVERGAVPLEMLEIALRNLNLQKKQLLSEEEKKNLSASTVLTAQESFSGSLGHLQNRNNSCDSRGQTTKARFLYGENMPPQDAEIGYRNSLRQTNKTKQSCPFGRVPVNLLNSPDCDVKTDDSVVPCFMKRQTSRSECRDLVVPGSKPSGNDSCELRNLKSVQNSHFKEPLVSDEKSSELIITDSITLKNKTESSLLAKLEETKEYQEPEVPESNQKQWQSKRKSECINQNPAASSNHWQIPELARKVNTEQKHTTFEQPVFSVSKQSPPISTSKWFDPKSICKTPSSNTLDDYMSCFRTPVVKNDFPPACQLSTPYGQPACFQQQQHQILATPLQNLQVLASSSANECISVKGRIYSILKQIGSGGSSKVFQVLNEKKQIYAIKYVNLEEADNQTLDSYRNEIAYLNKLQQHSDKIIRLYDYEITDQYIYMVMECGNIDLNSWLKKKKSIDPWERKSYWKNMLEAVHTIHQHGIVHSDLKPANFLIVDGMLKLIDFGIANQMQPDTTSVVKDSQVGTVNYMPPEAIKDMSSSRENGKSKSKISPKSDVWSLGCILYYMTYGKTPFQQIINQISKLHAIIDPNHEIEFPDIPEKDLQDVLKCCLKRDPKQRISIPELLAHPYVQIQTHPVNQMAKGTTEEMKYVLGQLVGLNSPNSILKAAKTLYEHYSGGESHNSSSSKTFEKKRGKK

panel of 468 kinases [4] = target: T4, panel of 468 kinases (Homo sapiens, UniProt Q6P3R8); conditions: NEK5; 1 μM; read-out: % control
T4 construct: purchased KINOMEscan (ScanMAX) service
T4 sequence (Q6P3R8 1-708): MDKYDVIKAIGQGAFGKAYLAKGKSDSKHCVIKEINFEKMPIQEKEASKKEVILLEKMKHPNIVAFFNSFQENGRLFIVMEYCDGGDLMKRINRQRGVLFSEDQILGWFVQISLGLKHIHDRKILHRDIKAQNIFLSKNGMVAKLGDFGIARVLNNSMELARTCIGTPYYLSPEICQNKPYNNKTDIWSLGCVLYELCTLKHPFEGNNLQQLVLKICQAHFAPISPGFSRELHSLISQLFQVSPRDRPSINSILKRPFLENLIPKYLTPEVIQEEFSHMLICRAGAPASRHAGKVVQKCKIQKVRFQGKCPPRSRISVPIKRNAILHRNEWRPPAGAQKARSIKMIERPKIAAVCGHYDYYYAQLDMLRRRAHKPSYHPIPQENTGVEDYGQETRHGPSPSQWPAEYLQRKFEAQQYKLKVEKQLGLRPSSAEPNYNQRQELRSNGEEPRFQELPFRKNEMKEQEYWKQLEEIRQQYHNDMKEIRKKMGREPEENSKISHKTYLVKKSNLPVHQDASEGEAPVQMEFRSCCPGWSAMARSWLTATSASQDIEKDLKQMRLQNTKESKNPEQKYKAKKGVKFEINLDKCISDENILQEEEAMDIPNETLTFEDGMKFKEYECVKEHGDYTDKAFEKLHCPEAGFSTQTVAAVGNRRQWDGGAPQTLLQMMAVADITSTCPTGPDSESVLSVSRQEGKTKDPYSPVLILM

panel of 468 kinases [5] = target: T5, panel of 468 kinases (Homo sapiens, UniProt O94921); conditions: PFTK1; 1 μM; read-out: % control
T5 construct: purchased KINOMEscan (ScanMAX) service
T5 sequence (O94921 whole entry): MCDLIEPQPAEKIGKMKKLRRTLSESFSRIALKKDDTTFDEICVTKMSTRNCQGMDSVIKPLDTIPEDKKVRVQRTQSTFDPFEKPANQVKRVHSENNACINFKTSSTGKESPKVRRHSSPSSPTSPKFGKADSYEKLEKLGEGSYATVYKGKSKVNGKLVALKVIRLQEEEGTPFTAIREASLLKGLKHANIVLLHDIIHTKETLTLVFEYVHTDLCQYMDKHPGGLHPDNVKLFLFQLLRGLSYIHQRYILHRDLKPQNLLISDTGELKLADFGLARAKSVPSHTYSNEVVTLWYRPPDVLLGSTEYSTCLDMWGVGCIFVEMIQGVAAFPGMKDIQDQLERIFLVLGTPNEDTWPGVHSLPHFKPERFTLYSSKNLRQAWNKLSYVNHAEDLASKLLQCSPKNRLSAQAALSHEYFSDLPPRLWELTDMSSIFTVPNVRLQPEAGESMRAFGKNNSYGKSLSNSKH

panel of 468 kinases [6] = target: T6, panel of 468 kinases (Homo sapiens, UniProt Q15303); conditions: ERBB4; 1 μM; read-out: % control
T6 construct: purchased KINOMEscan (ScanMAX) service
T6 sequence (Q15303 26-1308): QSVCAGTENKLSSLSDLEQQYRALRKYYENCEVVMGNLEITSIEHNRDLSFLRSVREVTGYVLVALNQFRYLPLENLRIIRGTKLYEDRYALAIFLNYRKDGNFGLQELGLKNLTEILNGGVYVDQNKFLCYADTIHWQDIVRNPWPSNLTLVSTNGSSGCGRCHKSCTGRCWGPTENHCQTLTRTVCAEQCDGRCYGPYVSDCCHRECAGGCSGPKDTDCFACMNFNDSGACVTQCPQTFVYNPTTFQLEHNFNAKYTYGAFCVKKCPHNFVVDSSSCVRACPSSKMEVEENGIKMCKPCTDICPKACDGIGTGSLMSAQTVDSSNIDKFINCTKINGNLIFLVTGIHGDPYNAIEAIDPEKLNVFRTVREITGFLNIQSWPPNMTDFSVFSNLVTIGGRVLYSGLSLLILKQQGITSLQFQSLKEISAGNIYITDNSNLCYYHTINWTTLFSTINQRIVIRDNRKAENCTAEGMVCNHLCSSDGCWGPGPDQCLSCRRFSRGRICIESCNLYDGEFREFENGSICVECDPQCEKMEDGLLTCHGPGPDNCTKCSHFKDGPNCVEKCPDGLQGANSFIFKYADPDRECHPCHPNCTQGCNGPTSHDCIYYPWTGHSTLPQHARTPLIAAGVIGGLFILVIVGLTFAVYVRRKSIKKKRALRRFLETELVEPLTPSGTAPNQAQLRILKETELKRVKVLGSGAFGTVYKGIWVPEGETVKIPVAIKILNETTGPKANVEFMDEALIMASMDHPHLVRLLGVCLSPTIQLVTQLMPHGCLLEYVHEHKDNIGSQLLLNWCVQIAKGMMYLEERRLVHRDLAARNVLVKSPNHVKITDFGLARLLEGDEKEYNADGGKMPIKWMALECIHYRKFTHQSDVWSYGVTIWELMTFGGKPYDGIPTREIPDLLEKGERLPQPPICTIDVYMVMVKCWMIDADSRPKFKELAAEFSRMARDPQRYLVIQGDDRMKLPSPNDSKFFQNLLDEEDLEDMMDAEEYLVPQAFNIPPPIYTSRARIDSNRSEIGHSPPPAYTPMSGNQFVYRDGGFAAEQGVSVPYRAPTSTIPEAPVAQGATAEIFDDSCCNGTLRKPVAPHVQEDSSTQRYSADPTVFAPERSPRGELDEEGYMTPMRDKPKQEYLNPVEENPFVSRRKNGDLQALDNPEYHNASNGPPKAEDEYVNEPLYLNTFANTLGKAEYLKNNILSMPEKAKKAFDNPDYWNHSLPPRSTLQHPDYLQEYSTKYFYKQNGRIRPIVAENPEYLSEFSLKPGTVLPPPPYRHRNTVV

T1 sequence (P12931 whole entry): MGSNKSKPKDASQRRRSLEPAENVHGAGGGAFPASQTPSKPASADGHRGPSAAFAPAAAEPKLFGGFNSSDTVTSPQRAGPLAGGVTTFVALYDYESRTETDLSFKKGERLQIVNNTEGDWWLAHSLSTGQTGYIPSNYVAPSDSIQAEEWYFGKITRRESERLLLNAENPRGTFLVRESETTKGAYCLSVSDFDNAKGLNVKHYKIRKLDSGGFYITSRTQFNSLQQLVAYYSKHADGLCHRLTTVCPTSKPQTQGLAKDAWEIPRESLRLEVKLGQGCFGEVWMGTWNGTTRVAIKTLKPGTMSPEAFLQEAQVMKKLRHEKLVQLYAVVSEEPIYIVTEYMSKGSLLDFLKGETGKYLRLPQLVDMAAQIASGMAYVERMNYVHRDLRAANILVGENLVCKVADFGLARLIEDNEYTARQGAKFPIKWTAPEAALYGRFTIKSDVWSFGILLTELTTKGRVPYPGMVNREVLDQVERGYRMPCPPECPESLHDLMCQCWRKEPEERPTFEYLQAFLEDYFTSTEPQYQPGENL

Row | Structure (SMILES) | remaining binding at 1 µM (panel of 468 kinases [1]) [%] | remaining binding at 1 µM (panel of 468 kinases [2]) [%] | remaining binding at 1 µM (panel of 468 kinases [3]) [%] | remaining binding at 1 µM (panel of 468 kinases [4]) [%] | remaining binding at 1 µM (panel of 468 kinases [5]) [%] | remaining binding at 1 µM (panel of 468 kinases [6]) [%]
1 | CNc1nc(Nc2ccc(S(=O)(=O)N3CCC(N4CCOCC4)CC3)cc2OC)nc2[nH]cc(Cl)c12 [Compound 12, 5-chloro-N2-(2-methoxy-4-((4-morpholinopiperidin-1-yl)sulfonyl)phenyl)-N4-methyl-7H-pyrrolo[2,3-d]pyrimidine-2,4-diamine] | 100 | 100 | 1 | 100 | 75 | 99
2 | CNc1nc(Nc2ccc(C(=O)N3CCC(N4CCOCC4)CC3)c3c2OCO3)nc2[nH]cc(Cl)c12 [Compound 75, (7-((5-chloro-4-(methylamino)-7H-pyrrolo[2,3-d]pyrimidin-2-yl)amino)benzo[d][1,3]dioxol-4-yl)(4-morpholinopiperidin-1-yl)methanone] | 100 | 98 | 0.6 | 97 | 91 | 90
3 | CNc1nc(Nc2ccc(P3(=O)CCN(C4CCOCC4)CC3)cc2OC)nc2[nH]cc(Cl)c12 [Compound 77, 4-(4-((5-chloro-4-(methylamino)-7H-pyrrolo[2,3-d]pyrimidin-2-yl)amino)-3-methoxyphenyl)-1-(tetrahydro-2H-pyran-4-yl)-1,4-azaphosphinane 4-oxide] | 100 | 62 | 0.5 | 98 | 100 | 88
